Molecular target: hepatocyte growth factor receptor (MET), exon 14 skipped (Homo sapiens, UniProt P08581, DEL963-1009)
Assay: PROTAC degradation of METex14Δ-GFP by live cell imaging in HEK293
Assay type: cell-based

For COc1cc2c(Oc3ccc(NC(=O)C4(C(=O)Nc5ccc(F)cc5)CC4)cc3F)ccnc2cc1OCCCOCCCOCCC(=O)N[C@H](C(=O)N1C[C@H](O)C[C@H]1C(=O)NCc1ccc(-c2scnc2C)cc1)C(C)(C)C, the DC50 was 2610 ± 115 nM.
